Experiments:
Assay in all cases: relative viability (nuclei count vs DMSO), 5 days (fraction); higher = more cells survive
Everolimus + Vorinostat = compound: CO[C@H]1C[C@@H]2CC[C@@H](C)[C@@](O)(O2)C(=O)C(=O)N2CCCC[C@H]2C(=O)O[C@H]([C@H](C)C[C@@H]2CC[C@@H](OCCO)[C@H](OC)C2)CC(=O)[C@H](C)/C=C(\C)[C@@H](O)[C@@H](OC)C(=O)[C@H](C)C[C@H](C)/C=C/C=C/C=C/1C [Everolimus] + O=C(CCCCCCC(=O)Nc1ccccc1)NO [Vorinostat] (partner 1 µM)
Procedure, shortened: (§1)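 Nuclei were stained with Hoechst during a one-step fixation (final 0.05% Triton X-100, 1% formaldehyde, 1 ug/ml Hoechst) carried out 5 days after dosing, then counted on 4× images. The cells, lung cancer lines in 1536-well plates, had been dosed by pin tool the day after seeding with one drug alone or a fixed anchor-drug dose plus five library-drug doses (not always all listed) in √10 steps. Relative viability is the nuclei count in treated wells divided by that in vehicle wells, and each value is the median of duplicate plates.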

Everolimus + AZD7762 = compound: CO[C@H]1C[C@@H]2CC[C@@H](C)[C@@](O)(O2)C(=O)C(=O)N2CCCC[C@H]2C(=O)O[C@H]([C@H](C)C[C@@H]2CC[C@@H](OCCO)[C@H](OC)C2)CC(=O)[C@H](C)/C=C(\C)[C@@H](O)[C@@H](OC)C(=O)[C@H](C)C[C@H](C)/C=C/C=C/C=C/1C [Everolimus] + NC(=O)Nc1cc(-c2cccc(F)c2)sc1C(=O)N[C@H]1CCCNC1 [AZD7762] (partner 0.2 µM)
Procedure, shortened: as §1

Everolimus + Pictilisib = compound: CO[C@H]1C[C@@H]2CC[C@@H](C)[C@@](O)(O2)C(=O)C(=O)N2CCCC[C@H]2C(=O)O[C@H]([C@H](C)C[C@@H]2CC[C@@H](OCCO)[C@H](OC)C2)CC(=O)[C@H](C)/C=C(\C)[C@@H](O)[C@@H](OC)C(=O)[C@H](C)C[C@H](C)/C=C/C=C/C=C/1C [Everolimus] + CS(=O)(=O)N1CCN(Cc2cc3nc(-c4cccc5[nH]ncc45)nc(N4CCOCC4)c3s2)CC1 [Pictilisib] (partner 1 µM)
Procedure, shortened: as §1

Everolimus + Foretinib = compound: CO[C@H]1C[C@@H]2CC[C@@H](C)[C@@](O)(O2)C(=O)C(=O)N2CCCC[C@H]2C(=O)O[C@H]([C@H](C)C[C@@H]2CC[C@@H](OCCO)[C@H](OC)C2)CC(=O)[C@H](C)/C=C(\C)[C@@H](O)[C@@H](OC)C(=O)[C@H](C)C[C@H](C)/C=C/C=C/C=C/1C [Everolimus] + COc1cc2c(Oc3ccc(NC(=O)C4(C(=O)Nc5ccc(F)cc5)CC4)cc3F)ccnc2cc1OCCCN1CCOCC1 [Foretinib] (partner 0.25 µM)
Procedure, shortened: as §1

Row | Cell Line | relative viability (Everolimus + Vorinostat; first compound 0.01 µM) | relative viability (Everolimus + Vorinostat; first compound 0.03162 µM) | relative viability (Everolimus + Vorinostat; first compound 0.1 µM) | relative viability (Everolimus + Vorinostat; first compound 0.3162 µM) | relative viability (Everolimus + Vorinostat; first compound 1 µM) | relative viability (Everolimus + AZD7762; first compound 0.01 µM) | relative viability (Everolimus + AZD7762; first compound 0.03162 µM) | relative viability (Everolimus + AZD7762; first compound 0.1 µM) | relative viability (Everolimus + AZD7762; first compound 0.3162 µM) | relative viability (Everolimus + AZD7762; first compound 1 µM) | relative viability (Everolimus + Pictilisib; first compound 0.01 µM) | relative viability (Everolimus + Pictilisib; first compound 0.03162 µM) | relative viability (Everolimus + Pictilisib; first compound 0.1 µM) | relative viability (Everolimus + Pictilisib; first compound 0.3162 µM) | relative viability (Everolimus + Pictilisib; first compound 1 µM) | relative viability (Everolimus + Foretinib; first compound 0.01 µM) | relative viability (Everolimus + Foretinib; first compound 0.03162 µM) | relative viability (Everolimus + Foretinib; first compound 0.1 µM) | relative viability (Everolimus + Foretinib; first compound 0.3162 µM) | relative viability (Everolimus + Foretinib; first compound 1 µM)
1 | NCI-H522 | 0.788 | 0.784 | 0.589 | 0.726 | 0.731 | 0.622 | 0.64 | 0.579 | 0.651 | 0.686 |  |  |  |  |  |  |  |  |  | 
2 | NCI-H2228 | 0.536 | 0.342 | 0.458 | 0.436 | 0.336 |  |  |  |  |  | 0.28 | 0.206 | 0.209 | 0.289 | 0.243 | 0.603 | 0.586 | 0.575 | 0.413 | 0.556
3 | NCI-H520 | 0.455 | 0.373 | 0.439 | 0.394 | 0.387 |  |  |  |  |  | 0.186 | 0.197 | 0.204 | 0.185 | 0.165 | 0.478 | 0.335 | 0.321 | 0.434 | 0.349
4 | NCI-H661 | 0.607 | 0.687 | 0.671 | 0.678 | 0.555 |  |  |  |  |  | 0.301 | 0.253 | 0.235 | 0.305 | 0.296 | 0.876 | 0.702 | 0.738 | 0.73 | 0.664
5 | SW 1573 | 0.373 | 0.452 | 0.465 | 0.458 | 0.478 |  |  |  |  |  | 0.303 | 0.341 | 0.28 | 0.304 | 0.249 | 0.584 | 0.647 | 0.589 | 0.58 | 0.52
6 | NCI-H1299 |  |  |  |  |  |  |  |  |  |  | 0.54 | 0.537 | 0.512 | 0.386 | 0.528 | 1.06 | 1.21 | 0.634 | 1.07 | 1.05
7 | COR-L23 | 0.322 | 0.336 | 0.308 | 0.381 | 0.367 |  |  |  |  |  | 0.354 | 0.409 | 0.378 | 0.366 | 0.483 | 0.942 | 0.993 | 0.871 | 0.97 | 0.959
8 | SK-LU-1 | 0.52 | 0.52 | 0.587 | 0.538 | 0.527 |  |  |  |  |  | 0.296 | 0.307 | 0.289 | 0.341 | 0.345 | 0.41 | 0.438 | 0.449 | 0.432 | 0.469
9 | NCI-H1650 | 0.396 | 0.388 | 0.29 | 0.365 | 0.383 |  |  |  |  |  | 0.47 | 0.473 | 0.477 | 0.515 | 0.469 | 0.827 | 0.928 | 0.973 | 0.966 | 1.01
10 | NCI-H2342 | 0.559 | 0.438 | 0.524 | 0.56 | 0.633 | 0.394 | 0.331 | 0.382 | 0.376 | 0.461 |  |  |  |  |  | 0.924 | 0.654 | 0.551 | 0.618 | 0.681
11 | UMC-11 | 0.213 | 0.196 | 0.19 | 0.187 | 0.213 |  |  |  |  |  | 0.292 | 0.273 | 0.28 | 0.299 | 0.324 | 0.478 | 0.371 | 0.441 | 0.422 | 0.401
12 | SK-MES-1 | 0.897 | 1 | 1 | 0.887 | 0.743 |  |  |  |  |  | 0.281 | 0.243 | 0.265 | 0.236 | 0.215 | 0.701 | 0.662 | 0.638 | 0.501 | 0.547
13 | NCI-H2009 | 0.563 | 0.611 | 0.54 | 0.54 | 0.503 |  |  |  |  |  | 0.565 | 0.591 | 0.394 | 0.673 | 0.504 | 0.961 | 1.04 | 0.826 | 1.04 | 0.936
14 | NCI-H2023 | 0.496 | 0.441 | 0.341 | 0.372 | 0.379 |  |  |  |  |  | 0.164 | 0.144 | 0.135 | 0.174 | 0.111 | 0.503 | 0.404 | 0.424 | 0.358 | 0.376
15 | COR-L 105 | 0.58 | 0.465 | 0.535 | 0.572 | 0.59 |  |  |  |  |  | 0.331 | 0.376 | 0.295 | 0.368 | 0.313 | 0.775 | 0.71 | 0.787 | 0.709 | 0.952
16 | NCI-H1563 |  |  |  |  |  |  |  |  |  |  | 0.664 | 0.672 | 0.632 | 0.676 | 0.646 | 0.721 | 0.768 | 0.685 | 0.712 | 0.562
17 | EBC-1 |  |  |  |  |  |  |  |  |  |  | 0.199 | 0.193 | 0.221 | 0.227 | 0.222 | 0.109 | 0.108 | 0.103 | 0.133 | 0.0957
18 | Calu-6 |  |  |  |  |  |  |  |  |  |  | 0.573 | 0.566 | 0.559 | 0.527 | 0.592 | 0.845 | 0.785 | 0.811 | 0.77 | 0.742
19 | HCC-44 | 1.17 | 1.23 | 1.03 | 1.14 | 1.05 | 1.1 | 1.18 | 1.03 | 1.12 | 1.25 | 0.429 | 0.427 | 0.309 | 0.55 | 0.323 |  |  |  |  | 

Source: the supplement of paper PMC10307832
